The record followed here is patent publication US10851082B2, “Substituted aromatic n-heterocyclic compounds as inhibitors of mitogen-activated protein kinase interacting kinase 1 (MNK1) and 2 (MNK2)” (Northwestern University, priority 2015, dated 2020).

One experiment has as its target Mnk1 (Homo sapiens (Human), UniProt Q9BUB5). In words: Mnk1 kinase inhibition, ADP-Glo ADP monitoring assay. It counts as biochemical. Particulars: for IC50: read-out: Mnk1 IC50.
In a further experiment the target is Mnk2 (Homo sapiens (Human), UniProt Q9HBH9). In words: Mnk2 kinase inhibition, ADP-Glo ADP monitoring assay. The experiment is classed as biochemical. To be noted: ADP-Glo kinase assay.
Setting [1] is: read-out: Mnk2 inhibition IC50 (+,++,+++).

Like-named read-outs stand apart in the source and are kept apart here.

Mnk2, sequence (Q9HBH9 whole entry): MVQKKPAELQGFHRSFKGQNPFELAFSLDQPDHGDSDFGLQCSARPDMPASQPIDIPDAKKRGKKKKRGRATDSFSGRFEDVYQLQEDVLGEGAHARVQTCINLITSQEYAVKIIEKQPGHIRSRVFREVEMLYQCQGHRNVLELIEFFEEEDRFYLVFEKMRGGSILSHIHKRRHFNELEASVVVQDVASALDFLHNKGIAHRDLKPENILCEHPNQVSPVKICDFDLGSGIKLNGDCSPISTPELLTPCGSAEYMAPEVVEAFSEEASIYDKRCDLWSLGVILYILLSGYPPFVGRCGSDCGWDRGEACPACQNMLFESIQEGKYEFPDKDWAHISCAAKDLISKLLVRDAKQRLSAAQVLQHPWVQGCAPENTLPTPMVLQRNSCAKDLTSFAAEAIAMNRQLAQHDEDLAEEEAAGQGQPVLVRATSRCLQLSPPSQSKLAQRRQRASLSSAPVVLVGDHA
Mnk1, sequence (Q9BUB5 whole entry): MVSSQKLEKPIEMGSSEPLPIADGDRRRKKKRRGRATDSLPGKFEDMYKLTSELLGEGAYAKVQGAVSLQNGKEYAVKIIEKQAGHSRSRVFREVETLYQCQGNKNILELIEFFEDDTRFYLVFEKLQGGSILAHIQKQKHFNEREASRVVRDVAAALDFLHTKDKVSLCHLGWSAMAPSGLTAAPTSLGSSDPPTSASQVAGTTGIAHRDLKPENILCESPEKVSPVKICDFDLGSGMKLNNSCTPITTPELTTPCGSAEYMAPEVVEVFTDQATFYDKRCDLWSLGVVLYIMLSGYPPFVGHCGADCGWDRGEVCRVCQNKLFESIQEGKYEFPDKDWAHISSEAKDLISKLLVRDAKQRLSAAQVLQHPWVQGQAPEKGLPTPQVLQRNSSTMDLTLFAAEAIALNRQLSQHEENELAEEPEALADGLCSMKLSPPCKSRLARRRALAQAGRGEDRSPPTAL
Procedure for Mnk1: (§1) The synthesized compounds then were tested for inhibition of the kinase activity (IC50) of Mnk1 and/or Mnk2 using the ADP monitoring assay for kinases described in Zegzouti, H.; Zdanovskaia, M.; Hsiao, K.; Goueli, S. A., ADP-Glo: A Bioluminescent and homogeneous ADP monitoring assay for kinases.
Procedure for Mnk2: as §1

In the case of `CCNc1nccc(-c2cnn(-c3cccc(OC)c3)c2)n1` [NUCC-0054132], on Mnk1, the half-maximal inhibitory concentration (IC50) stood at 9000 nM. Regarding `COc1cccc(-n2cc(-c3ccnc(NCCc4c[nH]cn4)n3)cn2)c1` [NUCC-0054133], the IC50 on Mnk2 (read-out: Mnk2 IC50) amounted to 1800 nM; at Mnk1 it was 7000 nM. For the compound `Clc1cccc(-n2cc(-c3ccnc(NCc4ccncc4)n3)cn2)c1` [NUCC-0054134], the 50% inhibitory concentration (IC50) at Mnk1 amounted to 6000 nM.

As for `COc1cccc(-n2cc(-c3ccnc(NCCN4CCOCC4)n3)cn2)c1` [NUCC-0054138], the IC50 on Mnk1 is 12000 nM. Turning to `CCCn1ncc(-c2ccnc(NCc3nccn3CC)n2)c1C` [NUCC-0054147], the half-inhibitory concentration (IC50) on Mnk2 (read-out: Mnk2 IC50) is 16000 nM; on Mnk1 it was 6000 nM. In the case of `Cn1cc(-c2ccnc(NCCN3CCOCC3)n2)cn1` [NUCC-0060894], the IC50 at Mnk1 turned out to be 4000 nM. On the same count and under the same terms, to `Cn1cc(-c2ccnc(NCCCN3CCCCC3)n2)cn1` [NUCC-0060895] belongs 5000 nM. On to `Cn1cc(-c2ccnc(N3CCC[C@H]3CO)n2)cn1` [NUCC-0060896], for which the figures for the 50% inhibitory concentration (IC50) on Mnk2 (read-out: Mnk2 IC50) and at Mnk1 were 3400 nM and 3000 nM, respectively. Consider `Cn1cc(-c2ccnc(NCc3ccc(F)cc3)n2)cn1` [NUCC-0060897], for which the IC50 on Mnk1 was 9000 nM.

As for `c1ccc2c(c1)ccn2-c1ccnc(NCCN2CCOCC2)n1` [NUCC-0060953], the half-inhibitory concentration (IC50) at Mnk1 is 9000 nM.

As to `c1ccc2c(c1)ccn2-c1ccnc(NCCc2cnc[nH]2)n1` [NUCC-0060955], the figures for the IC50 on Mnk2 (read-out: Mnk2 IC50) and on Mnk1 were 5000 nM and 16000 nM, respectively. As for `c1ccc2c(c1)ncn2-c1ccnc(NCCN2CCOCC2)n1` [NUCC-0060956], the IC50 at Mnk1 stood at 1000 nM.

As for `c1cc(CNc2nccc(-c3cnn(C4CCOCC4)c3)n2)ccn1` [NUCC-0060959], on Mnk1, the half-inhibitory concentration (IC50) was found to be 90000 nM. The same measure, in the same setting: the value for `c1ccc(-n2cc(-c3ccnc(NCCc4c[nH]cn4)n3)cn2)cc1` [NUCC-0060965] was 30000 nM. On the same count and under the same terms, the value for `c1cc(CCNc2nccc(-c3cnn(CCN4CCOCC4)c3)n2)ccn1` [NUCC-0060970] was 70000 nM. Same read-out and setting: to `c1ccc(Cn2cc(-c3ccnc(NCCc4c[nH]cn4)n3)cn2)cc1` [NUCC-0060971] belongs 19000 nM.

On to `c1ccc(Cn2cc(-c3ccnc(NCCc4ccncc4)n3)cn2)cc1` [NUCC-0060972], for which the IC50 is 2500 nM on Mnk2 (read-out: Mnk2 IC50) and 19000 nM at Mnk1. Turning to `COc1cccc(-n2cc(-c3ccnc(NCCCN4CCOCC4)n3)cn2)c1` [NUCC-0077154, 4-(1-(3-methoxyphenyl)-1H-pyrazol-4-yl)-N-(3-morpholinopropyl)pyrimidin-2-amine], on Mnk1, the IC50 was found to be 28000 nM.

With `COc1cccc(-n2cc(-c3ccnc(NCc4ccccc4)n3)cn2)c1` [NUCC-0077155], at Mnk1, the IC50 was 21000 nM. Consider `COc1cccc(-n2cc(-c3ccnc(NCc4ccncc4)n3)cn2)c1` [NUCC-0077163], for which, at Mnk1, the half-maximal inhibitory concentration (IC50) came to 8000 nM. For the compound `COc1cccc(-n2cc(-c3ccnc(NC4CCNCC4)n3)cn2)c1` [NUCC-0077164], the IC50 on Mnk1 came out at 6000 nM. Same read-out and setting: the value for `COc1cccc(-n2cc(-c3ccnc(NC4CCOC4)n3)cn2)c1` (stereo not drawn) [NUCC-0077165] was 6000 nM; that for `COc1cccc(-n2cc(-c3ccnc(NCCN(C)C)n3)cn2)c1` [NUCC-0077166] was 4000 nM.

`c1ccc(Cn2cc(-c3ccnc(NCCc4c[nH]cn4)c3)cn2)cc1` [NUCC-0077167]: the IC50 at Mnk2 (read-out: Mnk2 IC50) amounted to 7600 nM; on Mnk1 it was 8000 nM. Take `COc1cccc(-n2cc(-c3ccnc(Nc4ccncc4)n3)cn2)c1` [NUCC-0077168]: at Mnk1, the concentration for half-maximal inhibition (IC50) came out at 19000 nM. `CN(C)CCNc1nccc(-n2cnc3ccccc32)n1` [NUCC-0125582]: the IC50 at Mnk2 (read-out: Mnk2 IC50) worked out at 48 nM; on Mnk1, 500 nM. Consider `c1ccc2c(c1)ncn2-c1ccnc(NC2CCNCC2)n1` [NUCC-0125584], for which the concentration for half-maximal inhibition (IC50) on Mnk1 came to 1400 nM. The same measure, in the same setting: to `c1ccc2c(c1)ncn2-c1ccnc(NCc2ccncc2)n1` [NUCC-0125586] belongs 500 nM; to `CN1CCN(c2ccc(Nc3nccc(-n4cnc5ccccc54)n3)cc2)CC1` [NUCC-0125587], 500 nM; to `c1ccc2c(c1)ncn2-c1ccnc(Nc2ccc(N3CCCCC3)cc2)n1` [NUCC-0125588], 200 nM. Consider `COc1cccc(-n2cc(-c3ccnc(NC4CCNC4)n3)cn2)c1` (stereo not drawn) [NUCC-0125590], for which the half-maximal inhibitory concentration (IC50) worked out at 780 nM at Mnk2 (read-out: Mnk2 IC50) and 6000 nM on Mnk1. In the case of `COc1cccc(-n2cc(-c3ccnc(NC4CCOCC4)n3)cn2)c1` [NUCC-0125591], the concentration for half-maximal inhibition (IC50) at Mnk1 turned out to be 21000 nM. With `c1ccc2c(c1)ncn2-c1ccnc(Nc2ccc(-n3cccn3)cc2)n1` [NUCC-0125593], the concentration for half-maximal inhibition (IC50) on Mnk2 (read-out: Mnk2 IC50) turned out to be 39 nM; at Mnk1, 650 nM. The matching figures for `NC(=O)c1ccc(Nc2nccc(-n3cnc4ccccc43)n2)cc1` [NUCC-0125594]: 30 nM and 700 nM.

With `c1ccc2c(c1)ncn2-c1ccnc(NC2CCOCC2)n1` [NUCC-0125595], the IC50 on Mnk2 (read-out: Mnk2 IC50) was 83 nM; at Mnk1, 500 nM. On to `CNC(=O)c1ccc(Nc2nccc(-n3cnc4ccccc43)n2)cc1` [NUCC-0125596], for which the IC50 at Mnk2 (read-out: Mnk2 IC50) amounted to 34 nM; on Mnk1, 200 nM. Consider `O=C(c1ccc(Nc2nccc(-n3cnc4ccccc43)n2)cc1)N1CCNCC1` [NUCC-0125597], for which the IC50 on Mnk1 amounted to 6000 nM. Take `COc1cccc(-c2cn(-c3ccnc(NCCc4c[nH]cn4)n3)c3ccccc23)c1` [NUCC-0125599]: the IC50 at Mnk2 (read-out: Mnk2 IC50) is 6200 nM; at Mnk1, 29000 nM.

In the case of `COc1cccc(-n2cc(-c3ccnc(NCCc4ccncc4)c3)cn2)c1` [NUCC-0125601], the IC50 is 1700 nM on Mnk2 (read-out: Mnk2 IC50) and 5000 nM at Mnk1. The matching figures for `COc1cnc(NCCc2ccncc2)nc1-n1cnc2ccccc21` [NUCC-0175698]: 1800 nM and 5000 nM. The matching figures for `c1ccc2c(c1)NCCN2c1ccnc(NCCc2ccncc2)n1` [NUCC-0175722]: 250 nM and 1200 nM.

Take `c1cnc2ncn(-c3ccnc(NCCc4ccncc4)n3)c2c1` [NUCC-0176138]: the 50% inhibitory concentration (IC50) at Mnk2 (read-out: Mnk2 IC50) was 6000 nM; at Mnk1, 8500 nM. Take `c1cnc2ncn(-c3ccnc(NC4CCOC4)n3)c2c1` (stereo not drawn) [NUCC-0176142]: the IC50 on Mnk2 (read-out: Mnk2 IC50) amounted to 5300 nM; on Mnk1, 13000 nM. The matching figures for `c1cc(CCNc2nccc(-n3cnc4cnccc43)n2)ccn1` [NUCC-0176143]: 1100 nM and 4300 nM.

Turning to `OC1CCC(Nc2nccc(-n3cnc4ccccc43)n2)CC1` (stereo not drawn) [NUCC-0176145], the results for the IC50 at Mnk2 (read-out: Mnk2 IC50) and at Mnk1 were 52 nM and 400 nM, respectively. The matching figures for `c1ccc2c(c1)ncn2-c1ccnc(NN2CCOCC2)n1` [NUCC-0176146]: 1000 nM and 12000 nM. The matching figures for `OC1CCCC1Nc1nccc(-n2cnc3ccccc32)n1` (stereo not drawn) [NUCC-0176147]: 82 nM and 450 nM. Turning to `c1ccc2c(c1)ncn2-c1ccnc(N[C@@H]2CCOC2)n1` [NUCC-0176149], the IC50 at Mnk2 (read-out: Mnk2 IC50) came to 94 nM. Turning to `c1ccc2c(c1)ncn2-c1ccnc(NC2COC2)n1` [NUCC-0176150], the values for the IC50 at Mnk2 (read-out: Mnk2 IC50) and at Mnk1 were 90 nM and 420 nM, respectively. The matching figures for `c1ccc2c(c1)ncn2-c1ccnc(NC2CCCOC2)n1` (stereo not drawn) [NUCC-0176151]: 44 nM and 390 nM. The matching figures for `c1cc2c(cn1)ncn2-c1ccnc(NC2CCOC2)n1` (stereo not drawn) [NUCC-0176152]: 1300 nM and 1600 nM. The matching figures for `COC1CCC(Nc2nccc(-n3cnc4ccccc43)n2)CC1` (stereo not drawn) [NUCC-0176153]: 81 nM and 480 nM. Consider `O[C@@H]1CC[C@@H](Nc2nccc(-n3cnc4ccccc43)n2)C1` [NUCC-0176165], for which the concentration for half-maximal inhibition (IC50) on Mnk2 (read-out: Mnk2 IC50) was 61 nM; on Mnk1 it was 340 nM.

For the compound `OC1CCC(Nc2nccc(-n3cnc4ccccc43)n2)CC1` (stereo not drawn) [NUCC-0176166], the IC50 worked out at 63 nM at Mnk2 (read-out: Mnk2 IC50) and 390 nM at Mnk1. The matching figures for `COC1CCC(Nc2nccc(-n3cnc4ccccc43)n2)CC1` (stereo not drawn) [NUCC-0176167]: 60 nM and 300 nM. The matching figures for `c1ccc2c(c1)OCCN2c1ccnc(NCCc2ccncc2)n1` [NUCC-0176230]: 3500 nM and 5100 nM. The matching figures for `c1ccc2c(c1)CCN2c1ccnc(N[C@H]2CCOC2)n1` [NUCC-0176231]: 380 nM and 1100 nM. As to `c1ccc2c(c1)CCN2c1ccnc(N[C@@H]2CCOC2)n1` [NUCC-0176232], the results for the half-maximal inhibitory concentration (IC50) at Mnk2 (read-out: Mnk2 IC50) and at Mnk1 were 2300 nM and 4600 nM, respectively.

For the compound `c1ccc2c(c1)CCN2c1ccnc(NCCc2ccncc2)n1` [NUCC-0176233], the IC50 on Mnk2 (read-out: Mnk2 IC50) turned out to be 4700 nM; on Mnk1 it was 8500 nM. The matching figures for `Fc1cnc(NCCc2ccncc2)nc1-n1ccc2ccccc21` [NUCC-0176283]: 10000 nM and 8700 nM. In the case of `c1ccc2c(c1)ncn2-c1cc(NCCc2ccncc2)ncn1` [NUCC-0176284], the concentration for half-maximal inhibition (IC50) came to 1200 nM on Mnk2 (read-out: Mnk2 IC50) and 2600 nM at Mnk1.

As for `c1ccc2c(c1)ccn2-c1cc(NCCc2ccncc2)ncn1` [NUCC-0176285], the half-inhibitory concentration (IC50) on Mnk2 (read-out: Mnk2 IC50) is 6000 nM; at Mnk1, 4700 nM. With `c1ccc2c(c1)ncn2-c1cc(NCCc2ccncc2)cnn1` [NUCC-0176338], the “Mnk2 IC50” value at Mnk2 is on record as “no activity”. At Mnk1, the “Mnk1 IC50” value was “no activity”. `c1ccc2c(c1)c1ccccc1n2-c1ccnc(NCCc2ccncc2)n1` [NUCC-0176339]: the half-maximal inhibitory concentration (IC50) at Mnk2 (read-out: Mnk2 IC50) was determined as 10000 nM; at Mnk1, 11000 nM.

For `c1cncc(CCNc2nccc(-n3cnc4ccccc43)n2)c1` [NUCC-0176340], the IC50 turned out to be 69 nM at Mnk2 (read-out: Mnk2 IC50) and 550 nM at Mnk1. Consider `Brc1cnc(NCCc2ccncc2)nc1-n1ccnc1` [NUCC-0196229], for which the IC50 on Mnk2 (unit inferred, read-out: Mnk2 IC50) is 1200 nM.

For the compound `OC1CCN(c2ncc(Cl)c(-n3cnc4ccccc43)n2)CC1` [NUCC-0200781], at Mnk2 (setting [1]), the half-inhibitory concentration (IC50) is < 1000 nM.

Consider `N#Cc1cnc(-n2cnc3ccccc32)nc1NCCCc1ccncc1` [NUCC-0200914], for which, on Mnk2 (setting [1]), the half-maximal inhibitory concentration (IC50) was < 1000 nM. `NC1CC(Oc2ncc(-c3ccccc3OC(F)(F)F)c(-n3cnc4ccccc43)n2)C1` (stereo not drawn) [NUCC-0201898, 3-((4-(1H-benzo[d]imidazol-1-yl)-5-(2-(trifluoromethoxy)phenyl)pyrimidin-2-yl)oxy)cyclobutan-1-amine]: on Mnk2 (setting [1]), the half-inhibitory concentration (IC50) is < 1000 nM.
